Experimental data: patent publication US20160151380A1, “THERAPIES FOR DISEASES CAUSED BY ARTHROPOD-BORNE PARASITES” (THE REGENTS OF THE UNIVERSITY OF CALIFORNIA, priority 2013, published 2016)
“Also recorded” adds a separate entry of the source.

What was measured:
MAPK14 p38 = MAPK14 p38 (Homo sapiens, UniProt Q16539); settings: cited from earlier work
JNK3 = JNK3 (Homo sapiens, UniProt P53779); settings: cited from earlier work
PKCepsilon = target: T1, PKCepsilon (Homo sapiens, UniProt Q02156); settings: PKCepsilon; cited from earlier work
T1 sequence (Q02156 1-737): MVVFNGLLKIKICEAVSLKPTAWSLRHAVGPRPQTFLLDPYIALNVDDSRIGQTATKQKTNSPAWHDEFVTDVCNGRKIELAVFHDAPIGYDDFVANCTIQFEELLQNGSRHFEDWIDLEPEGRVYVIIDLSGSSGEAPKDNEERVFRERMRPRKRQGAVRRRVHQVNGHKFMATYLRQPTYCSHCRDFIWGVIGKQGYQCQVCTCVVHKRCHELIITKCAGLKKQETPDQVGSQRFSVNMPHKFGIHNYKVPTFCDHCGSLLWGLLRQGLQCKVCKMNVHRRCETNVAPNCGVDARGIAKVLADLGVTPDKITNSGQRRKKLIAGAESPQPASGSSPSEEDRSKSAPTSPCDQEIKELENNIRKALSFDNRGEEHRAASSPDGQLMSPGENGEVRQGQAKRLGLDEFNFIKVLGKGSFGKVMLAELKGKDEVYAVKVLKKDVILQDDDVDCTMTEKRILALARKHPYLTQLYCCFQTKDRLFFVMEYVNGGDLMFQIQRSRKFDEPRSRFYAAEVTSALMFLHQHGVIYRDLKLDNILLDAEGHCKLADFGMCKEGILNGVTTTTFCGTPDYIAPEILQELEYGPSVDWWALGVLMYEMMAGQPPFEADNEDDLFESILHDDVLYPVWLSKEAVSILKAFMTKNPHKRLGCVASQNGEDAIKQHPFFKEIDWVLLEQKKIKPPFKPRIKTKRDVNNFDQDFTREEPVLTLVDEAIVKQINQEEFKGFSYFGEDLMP

JNK1 = JNK1 (Homo sapiens, UniProt P45983); settings: cited from earlier work
JNK1, sequence (P45983 whole entry, species assumed): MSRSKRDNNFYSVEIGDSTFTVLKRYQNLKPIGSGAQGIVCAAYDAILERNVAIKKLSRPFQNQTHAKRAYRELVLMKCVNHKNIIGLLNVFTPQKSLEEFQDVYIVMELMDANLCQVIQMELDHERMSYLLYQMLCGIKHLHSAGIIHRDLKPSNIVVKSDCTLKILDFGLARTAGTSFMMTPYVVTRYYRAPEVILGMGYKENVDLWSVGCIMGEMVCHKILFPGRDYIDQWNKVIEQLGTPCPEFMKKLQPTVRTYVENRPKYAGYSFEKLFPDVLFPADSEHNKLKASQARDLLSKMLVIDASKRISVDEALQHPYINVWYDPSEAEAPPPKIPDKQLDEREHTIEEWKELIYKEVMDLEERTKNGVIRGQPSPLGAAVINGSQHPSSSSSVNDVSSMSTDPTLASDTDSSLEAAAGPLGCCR

A. stephensi = test: Mosquito lifespan, A. stephensi; assay type: in vivo, Anopheles stephensi; settings: 1 μM or 10 μM daily in water or once weekly via bloodmeal
A. freeborni = test: Mosquito lifespan, A. freeborni; assay type: in vivo; settings: 1 μM or 10 μM daily in water or once weekly via bloodmeal
[1] = system: Anopheles stephensi p38 MAPK; test: MK2 phosphorylation in LPS-stimulated ASE cells (western blot); assay type: cell-based; settings: ASE cells pre-incubated with 10 μM inhibitor, 2 h later 1 μg/ml LPS
Plasmodium falciparum [2] = test: P. falciparum growth in vitro (flow cytometry); assay type: cell-based; settings: 1 μM or 10 μM, 48 h, relative to vehicle control
Plasmodium falciparum [3] = test: P. falciparum development in A. stephensi after supplemented bloodmeal (oocysts); assay type: in vivo; settings: 10 μM in bloodmeal
Method: Midguts were dissected and oocysts were counted at 10 days following infection. Dots in FIG. 3A and FIG. 3C represent oocyst numbers in one midgut, while percentage positive midguts or percentage of midguts with at least one oocyst are represented as means in FIG. 3B and FIG. 3D. Mean oocysts per midgut (lines, numbers on graph) were analyzed by ANOVA (alpha=0.05) for overall significance and by Student-Neuman-Keuls for pairwise comparisons using Graphpad Prism version 4.0 (San Diego, Calif.). Prevalences of mosquito infection (indicated on graph) were analyzed by chi-square (alpha=0.05).

anti-parasite genes = test: Midgut expression of anti-parasite/immune genes in A. stephensi (quantitative PCR); assay type: in vivo, Anopheles stephensi; settings: fed killed lysate of P. falciparum with BIRB 796; 6 h post-feeding

JNK3, sequence (P53779 whole entry, species assumed): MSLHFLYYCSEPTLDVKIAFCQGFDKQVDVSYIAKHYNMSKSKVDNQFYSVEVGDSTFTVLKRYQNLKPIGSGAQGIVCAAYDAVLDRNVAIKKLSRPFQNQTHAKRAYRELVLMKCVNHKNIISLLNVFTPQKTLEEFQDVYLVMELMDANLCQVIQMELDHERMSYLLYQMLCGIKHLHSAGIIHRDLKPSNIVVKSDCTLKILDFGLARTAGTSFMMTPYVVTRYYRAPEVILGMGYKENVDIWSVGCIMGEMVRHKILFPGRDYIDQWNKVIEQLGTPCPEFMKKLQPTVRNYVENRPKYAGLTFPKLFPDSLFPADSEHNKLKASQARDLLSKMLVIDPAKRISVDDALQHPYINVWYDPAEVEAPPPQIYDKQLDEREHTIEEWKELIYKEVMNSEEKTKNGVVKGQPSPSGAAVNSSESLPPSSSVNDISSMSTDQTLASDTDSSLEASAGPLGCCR
MAPK14 p38, sequence (Q16539 whole entry): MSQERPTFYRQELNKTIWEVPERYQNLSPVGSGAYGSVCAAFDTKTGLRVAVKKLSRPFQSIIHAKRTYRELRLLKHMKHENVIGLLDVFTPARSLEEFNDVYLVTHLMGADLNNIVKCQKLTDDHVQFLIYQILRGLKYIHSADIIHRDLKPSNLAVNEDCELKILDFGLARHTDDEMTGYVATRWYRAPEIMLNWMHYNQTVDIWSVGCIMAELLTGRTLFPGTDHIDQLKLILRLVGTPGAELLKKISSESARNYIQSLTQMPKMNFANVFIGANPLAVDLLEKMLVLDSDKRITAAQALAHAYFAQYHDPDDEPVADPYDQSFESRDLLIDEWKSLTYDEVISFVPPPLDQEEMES

For Cc1ccc(C(=O)Nc2cccc(C(F)(F)F)c2)cc1-c1ccc2nc(NCCN3CCOCC3)ncc2c1 [AMG-47a], the IC50 (MAPK14 p38) is listed as 3 nM and the IC50 (JNK3) is listed as 145 nM.
For O=C(Nc1c[nH]nc1-c1nc2cc(CN3CCOCC3)ccc2[nH]1)NC1CC1 [AT9283], the IC50 (PKCepsilon) is listed as over 100 nM, the IC50 (MAPK14 p38) is listed as over 100 nM and the IC50 (JNK1) is listed as over 100 nM. The IC50 (JNK3) was over 100 nM.
In the case of COc1ccc(N(C(=O)Nc2c(C)cccc2C)c2cc(Nc3ccc(N4CCN(C)CC4)cc3)ncn2)c(OC)c1 [HG-9-91-01], the IC50 (MAPK14 p38) is given as under 600 nM and the IC50 (JNK3) is given as under 800 nM.
With Oc1c2ccccc2c2c3c(cccc13)N=N2 [SP600125] the impact on lifespan (A. stephensi) was “no negative impact” and the impact on lifespan (A. freeborni) was “no negative impact”.
For O=C(O)[C@]1(Cc2cccc(Nc3nccs3)n2)CC[C@@H](Oc2cccc(Cl)c2F)CC1 [MK5108], the IC50 (PKCepsilon) is given as over 1000 nM, the IC50 (JNK1) is given as over 1000 nM and the IC50 (JNK3) is given as over 100 nM.
For C=CC(=O)Nc1cccc(Oc2nc(Nc3ccc(N4CCN(C)CC4)cc3OC)ncc2Cl)c1 [WZ4002], the Kd (PKCepsilon) is listed as over 1000 nM, the Kd (JNK1) is listed as over 1000 nM and the Kd (JNK3) is listed as over 1000 nM.
In the case of C[S+]([O-])c1ccc(-c2nc(-c3ccc(F)cc3)c(-c3ccncc3)[nH]2)cc1 (centres unmarked) [SB203580, 4-[4-(4-fluorophenyl)-2-(4-methylsulfinylphenyl)-1H-imidazol-5-yl]pyridine], the p-MK2 levels [1] is reported as “undetectable”, the “P. falciparum growth in vitro (parasitemia)” value (Plasmodium falciparum [2]) is reported as “Neither inhibitor significantly altered parasite growth; also recorded: no such effects” and the infection prevalence (Plasmodium falciparum [3]; 10 days) is reported as “significantly reduced”. The P. falciparum oocysts/midgut (Plasmodium falciparum [3]; oocysts counted at 10 days) was “significantly reduced” and the “p38 MAPK activity in the mosquito in vivo” value (mosquito p38 MAPK) was “significantly reduced”.
For Cc1n[nH]c2ccc(-c3cncc(OC[C@@H](N)Cc4c[nH]c5ccccc45)c3)cc12 [A 443654], the IC50 (JNK1) is listed as over 900 nM and the IC50 (JNK3) is listed as over 900 nM.
In the case of CCOC(=O)Cn1nc(C(F)F)cc1C [SureCN7018367], the Kd (JNK1) is given as under 1250 nM and the Kd (JNK3) is given as under 10 nM.
In the case of O=C(O)c1ccc2c(c1)nc(Nc1cccc(Cl)c1)c1ccncc12 [Silmitasertib], the IC50 (JNK1) is given as over 1000 nM and the IC50 (JNK3) is given as over 1000 nM.
In the case of C=CC(=O)Nc1cccc(Oc2nc(Nc3ccc(N4CCN(C)CC4)cc3)ncc2Cl)c1 [WZ3146], the Kd (PKCepsilon) is listed as over 1000 nM, the Kd (JNK1) is listed as over 1000 nM and the Kd (JNK3) is listed as over 1000 nM.
In the case of Cc1ccc(-n2nc(C(C)(C)C)cc2NC(=O)Nc2ccc(OCCN3CCOCC3)c3ccccc23)cc1 [BIRB 796, 1-[5-tert-butyl-2-(4-methylphenyl)pyrazol-3-yl]-3-[4-(2-morpholin-4-ylethoxy)naphthalen-1-yl]urea], the “P. falciparum growth in vitro (parasitemia)” value (Plasmodium falciparum [2]) is reported as “Neither inhibitor significantly altered parasite growth; also recorded: no activity” and the “immune gene expression levels in midgut” value (anti-parasite genes) is reported as “significantly different from controls”.
